Source: patent US20020002171A1, “Materials and methods for killing nematodes and nematode eggs” (priority 2000, published 2002)

Key:
C. elegans = C. elegans nematode activity assay, 2-fold dilutions from 140 μM, visual evaluation at Day 4 (Example 3); assay type: in vivo, Caenorhabditis elegans
Method: The eggs were allowed to hatch, and the L1 larvae collected. See The Nematode Caenorhabditis elegans (1988) Cold Spring Harbor Laboratory Press. Using a Matrix Programmable Pipette, the L1s were distributed into 96-well tissue culture plates, 20 L1 in 50 μl NGM per well. Antibiotic/Antimyoticwas added to each well, and 1% by weight E. coli strain HB101. The subject anthelmintic compounds were stored at 5 mM in 100% DMSO. 0.7 μl of compounds 1-31 were added to the left-most column of wells to yield a final concentration of 70 μM in 1.4% DMSO, with 1.4% DMSO only as the control. The compounds were then subjected to 5 more 3-fold dilutions from left to right to yield 6 column concentrations of 70 μM, 23.3 μM, 7.8 μM, 2.6 μM, 0.9 μM, and 0.3 μM. Plates were stored in air-tight Rubbermaid plastic boxes at 20° C. The nematodes had cleared all control wells by day 4, and nematode viability was scored by visual examination under a 100× dissecting microsope on day 5. A visual viability scoring system was used as follows:
The C. elegans nematode activity assay for anthelmintic compounds 32-46 was similar to that described in Example 2 above, except for the following noted differences. The compound concentrations were adjusted to 140 μM and subjected to 2-fold dilutions to yield 140 μM, 70 μM, 35 μM, 17.5 μM, 8.8 μM, 4.4 μM, 2.2 μM, and 1.09 μM.

Meloidogyne incognita = details: cited from earlier work
Caenorhabditis elegans = assay: C. elegans L1 nematicidal dose response in 96-well plates, 5 day visual score (Example 2; same procedure for Example 7, Table 3); assay type: in vivo; parameters: key to 5 Day Visual Score V1 / 5 Day Visual Score V2 / 5 Day Visual Score V3 / 5 Day Visual Score V4 / 5 Day Visual Score V6 / 5 Day Visual Score V5 / Initial HTS Run Visual Score / Follow-up HTS Run Visual Score: Dead: only stiff L1s (no movement); Dead (L4): worms are dead, but at a later larval stage; majority of worms are L1 (based on size) worms move when plate is tapped; majority of worms are L2 (based on size); majority of worms are L3 (based on size); majority of worms are L4 (based on size); AD: majority of worms are adult; #AD: 5 adult worms or less; B!: sterile (0-25 progeny); B: low broodsize (25-100 progeny); ˜B: moderate broodsize (100-250 progeny); <: reduced broodsize (250-500 progeny); OK: no effect (˜1000+ progeny); details: for 5 Day Visual Score V1 / 5 Day Visual Score V2 / 5 Day Visual Score V4 / 5 Day Visual Score V5 / 5 Day Visual Score V6 / 5 Day Visual Score V3: dose response
In short: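 Scoring was by eye at 100× on day 5, after incubation at 20° C, of 20 C. elegans L1s per well fed 1% E. coli HB101 in NGM. Compound columns V1–V6 spanned 70 μM to 0.3 μM in 3-fold steps, with 1.4% DMSO in the top well and as control.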

SMILES	Follow-up HTS Run % Run (Caenorhabditis elegans) [%]	Follow-up HTS Run Visual Score (Caenorhabditis elegans)	Follow-up HTS Run mOD (Caenorhabditis elegans) [mOD]	Initial HTS Run % Run (Caenorhabditis elegans) [%]	Initial HTS Run Visual Score (Caenorhabditis elegans)	Initial HTS Run mOD (Caenorhabditis elegans) [mOD]	5 Day Visual Score V1 (Caenorhabditis elegans; dilution V1, day 5)	5 Day Visual Score V2 (Caenorhabditis elegans; dilution V2, day 5)	5 Day Visual Score V4 (Caenorhabditis elegans; dilution V4, day 5)	5 Day Visual Score V5 (Caenorhabditis elegans; dilution V5, day 5)	5 Day Visual Score V6 (Caenorhabditis elegans; dilution V6, day 5)	further results
NCc1ccc(-c2ccccc2)cc1 [AKC-138]												visual evaluation of viability (C. elegans; 8.8 μM): B (low broodsize (25-100 progeny))
CCCCCCCCOc1ccc2nc(CCSC)[nH]c2c1 [AKC-144]												visual evaluation of viability (C. elegans; 1.09 μM): OK (no effect (˜1000+ progeny)); visual evaluation of viability (C. elegans; 2.2 μM): OK (no effect (˜1000+ progeny)); visual evaluation of viability (C. elegans; 4.4 μM): OK (no effect (˜1000+ progeny)); visual evaluation of viability (C. elegans; 8.8 μM): OK (no effect (˜1000+ progeny)); visual evaluation of viability (C. elegans; 17.5 μM): ˜B (moderate broodsize (100-250 progeny)); visual evaluation of viability (C. elegans; 35 μM): B (low broodsize (25-100 progeny)); visual evaluation of viability (C. elegans; 70 μM): L4/AD/B
CC[C@H](C)[C@H]1O[C@]2(CC(O)[C@@H]1C)C[C@@H]1C[C@@H](C/C=C(\C)[C@@H](OC3CC(OC)C(OC4CC(OC)C(O)C(C)O4)C(C)O3)[C@@H](C)/C=C/C=C3\CO[C@@H]4[C@H](O)C(C)=C[C@@H](C(=O)O1)[C@]34O)O2 (stereo partly drawn) [Avermectin B2a]												activity against the root-knot nematode (Meloidogyne incognita): active
CCCCCCCCCCNc1nsc(N2CCN(c3ncccn3)CC2)n1 [compound 274]	116	Dead	187	111	Dead	122	Dead	Dead	B (low broodsize (25-100 progeny))	OK (no effect (˜1000+ progeny))	OK (no effect (˜1000+ progeny))	
CCN(Cc1ccccc1)c1nc(NCc2ccccc2)ns1 [compound 326]	110		177	95		105						5 Day Visual Score V4 (Caenorhabditis elegans; dilution V4, 5 day): OK (no effect (˜1000+ progeny)); 5 Day Visual Score V5 (Caenorhabditis elegans; dilution V5, 5 day): OK (no effect (˜1000+ progeny)); 5 Day Visual Score V6 (Caenorhabditis elegans; dilution V6, 5 day): OK (no effect (˜1000+ progeny))
CCCCCCCCCCNc1nsc(N2CCN(c3c(C)cccc3C)CC2)n1 [compound 275]	105	Dead	169	95	Dead	105	Dead	Dead	OK (no effect (˜1000+ progeny))	OK (no effect (˜1000+ progeny))	OK (no effect (˜1000+ progeny))	5 Day Visual Score V3 (Caenorhabditis elegans; dilution V3, day 5): OK (no effect (˜1000+ progeny))
CCCCN(CC)c1nc(NC2CCCCCCCCCCC2)ns1 [compound 332]	75	Dead	121	92	Dead	101						5 Day Visual Score V1 (Caenorhabditis elegans; dilution V1, 5 day): Dead; 5 Day Visual Score V2 (Caenorhabditis elegans; dilution V2, 5 day): Dead; 5 Day Visual Score V3 (Caenorhabditis elegans; dilution V3, 5 day): L1; 5 Day Visual Score V4 (Caenorhabditis elegans; dilution V4, 5 day): OK (no effect (˜1000+ progeny)); 5 Day Visual Score V5 (Caenorhabditis elegans; dilution V5, 5 day): OK (no effect (˜1000+ progeny)); 5 Day Visual Score V6 (Caenorhabditis elegans; dilution V6, 5 day): OK (no effect (˜1000+ progeny))
CN(Cc1ccccc1)c1nc(NCc2ccccc2)ns1 [AKC 328]	101		163	98		108	Dead	L1		˜B (moderate broodsize (100-250 progeny))		
Cc1cccc(C)c1N1CCN(c2nsc(N(C)CCc3ccccc3)n2)CC1 [compound 234]	63	2AD/B	102	120	3AD/B	132	Dead		< (reduced broodsize (250-500 progeny))	OK (no effect (˜1000+ progeny))	OK (no effect (˜1000+ progeny))	5 Day Visual Score V3 (Caenorhabditis elegans; dilution V3, day 5): ˜B (moderate broodsize (100-250 progeny))
